In patent US20120004281A1, “RNA Interference Mediated Inhibition of the Nerve Growth Factor Beta Chain (NGFB) Gene Expression Using Short Interfering Nucleic Acid (siNA)” (Merck Sharp & Dohme Corp, priority 2009, published 2012):
[invAb] = inverted abasic unit; m = 2'-O-methyl; r = 2'-OH (RNA); f = 2'-fluoro

Legend:
NGFβ mRNA = NGFβ mRNA knock-down in Calu-1 cells (RNAiMax transfection, Taqman RT-PCR); assay type: cell-based, human; settings: for Primary Screen % KD (10 nM) / IC50 / Maximum % KD in DRC: human CaLu-1 cells; for Primary Screen % KD (10 nM): mean ± S.D. of four experiments; for IC50 / Maximum % KD in DRC: dose response 0.083fM to 30 nM, mean ± S.D.; for % KD in CaLu-1 Cells: human Calu-1 cells, 10 nM siNA, 24 hrs post-transfection, relative to non-targeting control, normalized to GAPDH
Experimental: Calu-1 (human; ATCC cat# HTB-54): Cells were cultured at 37° C. in the presence of 5% CO2 and grown in McCoy's 5a medium supplemented with fetal bovine serum at a final concentration of 10% and 100 μg/mL of streptomycin and 100 U/mL penicillin.
All transfections were performed using RNAiMax (Invitrogen Cat# 13778-150) as per the manufacturer's instructions.
Cells were plated in all wells of a tissue-culture treated, 96-well plate at a final count of 5,000 cells/well in […], of appropriate culture media. Cells were cultured for 24 hours after plating at 37° C. in the presence of 5% CO2.
After 24 hours, complexes containing siNA and RNAiMax were created as follows: A solution of RNAiMax diluted 33-fold in OPTI-MEM was prepared. In parallel, solutions of the siNAs for testing were prepared to a final concentration of 120 nM in OPTI-MEM. After incubation of RNAiMax/OPTI-MEM solution at room temperature for 5 min, an equal volume of the siRNA solution and the RNAiMax solution were added together for each of the siNAs.
This solution was incubated at room temperature for 20 minutes. After incubation, 20 uL of the solution was added to each of the relevant wells.
The final concentration of siNA in each well was 10 nM and the final volume of RNAiMax in each well was 0.3u1.
The time of incubation with the RNAiMax-siNA complexes was 24 hours, unless otherwise indicated. There was no change in media between the transfection and harvesting of the cells unless otherwise indicated.
Dose response curves were carried out in a similar fashion in 96-well plates, while maintaining a constant amount of RNAiMax in each transfection.
RNA was extracted from a 96-well plate using the TaqMan® Gene Expression Cells-to-CT™ Kit (Cat# 4399002) with a modified protocol. Briefly, a 60 uL (1 plate) or 110 uL (2 plates) of the Lysis Solution with DNase I was dispensed into each well of the Lysis Buffer Plate (twin.tec full skirt plate). The lysis buffer and stop plates were stored at 4° C. until the cells were washed.
The plate was spun at 1100 rpm for 5 minutes. The culture medium was aspirated and discarded from the wells of the culture plate. The lysis was performed automatically using a BioMek FX instrument and method. After the Biomek method was completed, the lysis plate was incubated for 2 min. at room temperature. The lysis plate can be stored for 2 hours at 4° C., or at −20° C. or −80° C. for two months.
Each well of the reverse transcription plate required 10 uL of 2× reverse transcriptase Buffer, luL of 20× reverse transcription enzyme and 2 uL of nuclease-free water. The reverse transcription master mix was prepared by mixing 2× reverse transcription buffer, 20× reverse transcription enzyme mix, and nuclease-free water. 13 uL of the reverse transcription master mix was dispensed into each well of the reverse transcription plate (semi-skirted). A separate reverse transcription plate was prepared for each cell plate. The plate was loaded onto a Biomek NX or Biomek FX Dual-96 and the Biomek method was run. The program is programmed to automatically added 7 uL of lysate from the cell lysis procedure described above into each well of the reverse transcription plate. The plate is sealed and spun on a centrifuge (1000 rpm for 30 seconds) to settle the contents to the bottom of the reverse transcription plate. The plate is placed in a thermocycler at 37° C. for 60 min, 95° C. for 5 min, and 4° C. until the plate is removed from the thermocycler. Upon removal, if not used immediately, the plate was frozen at −20° C.
A series of probes and primers were used to detect the various mRNA transcripts of the genes of NGFβ, BDNF and GAPDH in human cell lines. All the Taqman probes and primers for the experiments here-in described were supplied as pre-validated sets by Applied Biosystems, Inc. (see Table 3). The assays were performed on an ABI 7900 instrument, according to the manufacturer's instructions. […]

NGFβ protein = assay: NGFβ ELISA (protein knock-down in Calu-1 cells); assay type: cell-based, human; settings: for Max % Protein Reduction at 3 nM: 3 nM siNA, relative to negative universal control siNA (UC3); for IC50: 200 fM to 3 nM siNA, ELISA
Experimental: In a 96-well plate, 5,000 Calu-1cells/well were seeded in 100 uL of complete growth media and incubated overnight at 37° C. with 5% CO2. The cells were transfected with siNAs using RNAiMax (Invitrogen, Cat# 13778-150); final concentration of siNAs is 3e-09, le-09, 3e-10, le-10, 4e-11, le-11, 4e-12, le-12, 5e-13, and 2e-13 M. The amount of RNAiMax in each well is 0.3 uL. The siNAs were incubated for 24 hours. The medium was replaced with 100 uL of fresh complete growth medium. The cells were incubated for 48 hours. 80 uL of the medium from each well was collected into a separate 96-well plate. The samples were frozen immediately at −80° C. until ready the assay was ready to be performed.
ELISA was performed using NGF Emax® ImmunoAssay System (Promega, Cat # G7630) according to the manufaturer's instructions. The samples were diluted 1:2 with the blocking buffer provided in the kit. The samples absorbance was recorded at 450 nm on a SpectraMax plate reader (Molecular Devices) within 30 minutes of stopping the reaction.
Sigmaplot was used to determine IC50 values for each of the tested siRNAs using a sigmoidal dose response calculation. The maximum percentage of protein knock-down was determined by dividing the pg/mL at each treated siNA concentration by the pg/mL of the control treated cells at the same concentration of siNA. This number was then converted to a percentage to give the percent of protein remaining.
Various siNAs were also evaluated for their potential to knock-down NGFβ protein using an ELISA assay. Six siNAs were tested in an NGFβ ELISA assay across a range of concentrations of siNAs (200 fM to 3 nM) and the level of reduction of protein was determined relative to treatment of the cells with identical concentrations of the negative universal control siNA (UC3) (see Table 6).

NGF = target: T1, NGF (Homo sapiens, UniProt P01138); settings: 440 patients, moderate-severe OA knee pain, 100 or 200 mcg/kg; 26% of patients given placebo; cited from earlier work
T1 construct: host or cells: patients (in vivo)
T1 sequence (P01138 122-241): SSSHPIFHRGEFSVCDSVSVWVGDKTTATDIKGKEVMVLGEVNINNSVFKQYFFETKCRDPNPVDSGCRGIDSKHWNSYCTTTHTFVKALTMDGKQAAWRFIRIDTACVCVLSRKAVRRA

Row | Substance | Primary Screen % KD (10 nM) (NGFβ mRNA) [%] | IC50 (NGFβ mRNA) [pM] | Maximum % KD in DRC (NGFβ mRNA) [%] | % KD in CaLu-1 Cells (NGFβ mRNA) [%] | Max % Protein Reduction at 3 nM (NGFβ protein) [%] | IC50 (NGFβ protein) [pM] | patients with 50% decline in pain (NGF)
1 | 25413-DC: siNA duplex, NGFβ target site 153; sense B cuGAGGuGcAuAGcGuAAu TTB (SEQ ID NO: 51), antisense AUUAcGcuAuGcAccucAGUU (SEQ ID NO: 52) (sense CUGAGGUGCAUAGCGUAAUTT; antisense AUUACGCUAUGCACCUCAGUU; sense: DNA at AGT, 2'-fluoro at CU, [invAb] at 5' end, 3' end, backbone not given here; antisense: sugars from the 5' end rrrmfmffmfmfmffffmmmm, backbone not given here) | 76 ± 6 | 38 ± 35 | 69 ± 8 | 68 | 77 | 253 | 
2 | 25416-DC: siNA duplex, NGFβ target site 771; sense B GuAccAcGAcucAcAccuu TTB (SEQ ID NO: 57), antisense AAGGuGuGAGucGuGGuAcUU (SEQ ID NO: 58) (sense GUACCACGACUCACACCUUTT; antisense AAGGUGUGAGUCGUGGUACUU; sense: DNA at AGT, 2'-fluoro at CU, [invAb] at 5' end, 3' end, backbone not given here; antisense: sugars from the 5' end rrrmfmfmmmffmfmmfmfmm, backbone not given here) | 80 ± 3 | 35 ± 33 | 61 ± 7 | 69 | 89 | 96 | 
3 | 25417-DC: siNA duplex, NGFβ target site 655; sense B GGuGAAcAuuAAcAAcAGu TTB (SEQ ID NO: 59), antisense ACUGuuGuuAAuGuucAccUU (SEQ ID NO: 60) (sense GGUGAACAUUAACAACAGUTT; antisense ACUGUUGUUAAUGUUCACCUU; sense: DNA at AGT, 2'-fluoro at CU, [invAb] at 5' end, 3' end, backbone not given here; antisense: sugars from the 5' end rrrmffmffmmfmfffmffmm, backbone not given here) | 71 ± 2 | 71 ± 46 | 61 ± 2 | 68 | 77 | 303 | 
4 | 25422-DC: siNA duplex, NGFβ target site 171; sense B uGuccAuGuuGuucuAcAc TTB (SEQ ID NO: 69), antisense GUGuAGAAcAAcAuGGAcAUU (SEQ ID NO: 70) (sense UGUCCAUGUUGUUCUACACTT; antisense GUGUAGAACAACAUGGACAUU; sense: DNA at AGT, 2'-fluoro at CU, [invAb] at 5' end, 3' end, backbone not given here; antisense: sugars from the 5' end rrrfmmmmfmmfmfmmmfmmm, backbone not given here) | 72 ± 11 | 60 ± 45 | 61 ± 9 | 72 | 77 | 395 | 
5 | 25424-DC: siNA duplex, NGFβ target site 176; sense B AuGuuGuucuAcAcucuGA TTB (SEQ ID NO: 73), antisense UCAGAGuGuAGAAcAAcAuUU (SEQ ID NO: 74) (sense AUGUUGUUCUACACUCUGATT; antisense UCAGAGUGUAGAACAACAUUU; sense: DNA at AGT, 2'-fluoro at CU, [invAb] at 5' end, 3' end, backbone not given here; antisense: sugars from the 5' end rrrmmmfmfmmmmfmmfmfmm, backbone not given here) | 82 ± 9 | 50 ± 55 | 72 ± 5 | 78 | 85 | 108 | 
6 | 25425-DC: siNA duplex, NGFβ target site 181; sense B GuucuAcAcucuGAucAcA TTB (SEQ ID NO: 75), antisense UGUGAucAGAGuGuAGAAcUU (SEQ ID NO: 76) (sense GUUCUACACUCUGAUCACATT; antisense UGUGAUCAGAGUGUAGAACUU; sense: DNA at AGT, 2'-fluoro at CU, [invAb] at 5' end, 3' end, backbone not given here; antisense: sugars from the 5' end rrrmmffmmmmfmfmmmmfmm, backbone not given here) | 83 ± 6 | 20 ± 19 | 72 ± 1 | 80 | 87 | 74 | 
7 | Tanezumab |  |  |  |  |  |  | approximately 75%
